Our source for the EC50, IC50 and outcome values is PubChem BioAssay AID179 (DTP/NCI, 2004).

The test concerns CEM cells HIV-1 protection, formazan growth assay. In words: NCI AIDS Antiviral Assay. To be noted: for IC50: measured here: growth of uninfected CEM cells. In a few lines:
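Protection of CEM cells against HIV-1 measured as cell growth via soluble formazan read-out, with five concentrations tested on both infected and uninfected cells; failure to protect may reflect toxicity.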

The structures appear in SMILES notation. Activity calls are given as the source filed them.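 Rule for the calls: active = compounds giving half or more protection of infected cells from virus-caused growth loss, again on retest; inactive = the rest.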 *1 amine or outer side, *2 acyl side, *3 side chain or, on linkers, in order; H or OH if unused. Where a SMILES comes first, the peptide text is derived from it. Bridges are numbered along the chain shown (N, C = ends). Roman numbers before positions name the chains, in order. [ ]: non-standard residue; d: D form. The star is where a group is joined. Actinocin(9to1) = Cc1c2oc3c(C)ccc(C(=O)[*:1])c3nc-2c(C(=O)[*:2])c(N)c1=O; aThr = C[C@H](O)[C@H](N)C(=O)O; NMeV = CN[C@H](C(=O)O)C(C)C; Bz = O=C(c1ccccc1)*; Sar = CNCC(=O)O Bounds are passed on as bounds.

For orientation: EC50 means the concentration at which the effect is half-maximal. For orientation: IC50 means the point on the concentration scale where inhibition reaches its midpoint. As for `Fc1ccc(OCc2nc3cc(C(F)(F)F)ccc3nc2-c2ccccc2)cc1`, the EC50 is greater than 200 µM and the IC50 was 138 µM.

For `CC1=NNB(O)c2sccc21`, the EC50 was greater than 562 µM and the IC50 came out at 145 µM.

Take `CCOC(=O)CCc1c(C)c2ccc(O)cc2oc1=O`: the EC50 was greater than 200 µM and the IC50 was greater than 200 µM.

Consider `COC(=O)c1ccccc1C1CN=NC12Cc1c(C)ccc(C)c1C2=O` (stereo unspecified), for which the EC50 was greater than 200 µM and the IC50 worked out at 155 µM.

Take `O=c1[nH]cnc2sc(Nc3ccccc3)nc12`: the result was inactive.

For `COC(=O)Nc1cn2nc(N)sc2n1`, the EC50 is greater than 200 µM and the half-maximal inhibitory concentration (IC50) is greater than 200 µM.

For the compound `NC(N)=NCCCC(NCc1c2ccccc2nc2ccccc12)C(=O)O` (stereo unspecified), the result was inactive.

`O=S(=O)(O)CC(O)CCl` (stereo unspecified): the EC50 was greater than 200 µM and the 50% inhibitory concentration (IC50) is greater than 200 µM.

For the compound `CC(N)CNCCCNCCNCCCNCO` (stereo unspecified), the EC50 was greater than 100 µM and the IC50 is greater than 100 µM.

On to `COC(=O)/C(C#N)=C/c1ccco1`, for which the EC50 was greater than 200 µM and the IC50 was greater than 200 µM.

On to `CC(C)Oc1c(-c2c(OC(C)C)c(=O)c2=O)c(=O)c1=O`, for which the EC50 is greater than 200 µM and the IC50 is greater than 200 µM.

Consider `COc1cc(/C=C2\C(=O)N(c3ccccc3Cl)C(c3ccccc3)S2(=O)=O)cc(OC)c1OC` (stereo unspecified), for which the EC50 was greater than 200 µM and the concentration for half-maximal inhibition (IC50) was determined as 85.1 µM.

As to `CC(=O)O[C@@H]1C2CCC3C(CC[C@@]4(C)C3CC[C@@H]4C(C)N(C)C)[C@@]2(C)C[C@H](O)[C@@H]1NC(=O)c1ccccc1` (stereo partly specified), the EC50 was greater than 1.38 µM and the IC50 is greater than 1.38 µM.

As to `c1ccc2c(c1)NC(C1OC3CCCN3C1C1Nc3ccccc3S1)S2` (stereo unspecified), the EC50 was greater than 200 µM and the 50% inhibitory concentration (IC50) is 107 µM.

Turning to `COc1cc(O)c2c(=O)c(O)c(-c3ccc(O)c(O)c3)oc2c1`, the EC50 was greater than 93.3 µM and the IC50 stood at 47.9 µM.

As to `OCC12C3C4C5C3C1C5C42` (stereo unspecified), the EC50 was greater than 200 µM and the IC50 was greater than 200 µM.

As for `COC(=O)/C=C/C1C(C(=O)OC)C2(C(=O)OC)CCC1(C(=O)OC)N2` (stereo unspecified), the outcome was inactive.

Consider `[N-]=[N+]=Nc1ccc(CNc2cc(=O)[nH]c(=O)[nH]2)cc1`, for which the EC50 is greater than 200 µM and the IC50 was greater than 200 µM.

In the case of `Cc1cc(O)c(/C=N/C(N)=S)c(=O)o1`, the EC50 was greater than 200 µM and the half-inhibitory concentration (IC50) is greater than 200 µM.

For the compound `NC(CCC(=O)NC(CSc1ccc([N+](=O)[O-])cc1[N+](=O)[O-])C(=O)NCC(=O)O)C(=O)O` (stereo unspecified), the EC50 was greater than 525 µM and the IC50 is greater than 525 µM.

Consider `Cc1ccc(NC(=O)CSc2nc(C)nc3c2sc(=S)n3-c2ccccc2)cc1`, for which the EC50 is greater than 200 µM and the IC50 turned out to be 138 µM.

For the compound `Cn1c(=O)c2nncnc2n(C)c1=O`, the EC50 is greater than 200 µM and the IC50 is greater than 200 µM.

On to `COc1cc(OC)cc(C2(C#N)CCN(C)CC2)c1`, for which the EC50 was greater than 191 µM and the IC50 is greater than 191 µM.

For `CC(=O)NC(C)(C)C1CC=C(C)/C(=N\O)C1` (stereo unspecified), the EC50 was greater than 1120 µM and the IC50 came to 776 µM.

Consider `CNC(=S)N/N=C(\C)c1ccc(OC)cc1O`, for which the EC50 was greater than 200 µM and the IC50 stood at 13.8 µM.

In the case of `CCOC(=O)CSc1nnc(C(Sc2nc(-c3ccccc3)c(-c3ccccc3)[nH]2)C(C)C)n1-c1ccccc1` (stereo unspecified), the EC50 was greater than 24 µM and the half-inhibitory concentration (IC50) was greater than 24 µM.

With `COc1c(C(C)C)cc(O)c2c1CCC1C(C)=C(C(=O)O)CCC21C` (stereo unspecified), the EC50 was greater than 200 µM and the half-inhibitory concentration (IC50) amounted to 110 µM.

For the compound `CC(c1ccccc1)C(O)S(=O)(=O)O` (stereo unspecified), the outcome was inactive.

On to `C#CCOC(=O)c1ccccc1OC(C)=O.[C-]#[O+].[C-]#[O+].[C-]#[O+].[C-]#[O+].[C-]#[O+].[C-]#[O+].[Co].[Co]`, for which the EC50 is greater than 200 µM and the half-inhibitory concentration (IC50) was found to be 9.33 µM.

Regarding `Brc1ccc2nncc(N3CC3)c2c1`, the result was inactive.

Take `CC12C3CC4C5CC(C(C53)[C@@H]1NCc1ccccc1)C42` (stereo partly specified): the EC50 is greater than 437 µM and the half-inhibitory concentration (IC50) is 77.6 µM.

Consider `CC(C)CC(NC(=O)C(Cc1ccc(O)cc1)NC(=O)C(C)N)C(=O)NCC(=O)NC(CCCCN)C(=O)NC(CCCCN)C(=O)NC(C(=O)NC(C)C(=O)NC(C(=O)NC(CC(N)=O)C(=O)O)C(C)O)C(C)C` (stereo unspecified) (H-AYLGKKVATN-OH; configuration not given here), for which the outcome was inactive.

Consider `O=C(CCN1CCCCC1)N1CCc2c([nH]c3ccccc23)C1c1cccnc1` (stereo unspecified), for which the EC50 was greater than 13.5 µM and the IC50 is greater than 13.5 µM.

`CCc1n[nH]c(=O)n1CCCCCCCCn1c(CC)n[nH]c1=O`: the EC50 is greater than 200 µM and the concentration for half-maximal inhibition (IC50) was greater than 200 µM.

For the compound `Cn1cnc(N)c(N=O)c1=O`, the EC50 was greater than 200 µM and the 50% inhibitory concentration (IC50) is greater than 200 µM.

Take `CC[N+](C)(CC)Cc1ccccc1[N+](=O)[O-]`: the EC50 is greater than 200 µM and the IC50 worked out at 126 µM.

On to `CC(C)c1c2[nH]c3ccccc3c2c(C(C)C)c2[nH]c3ccccc3c12`, for which the EC50 is greater than 20 µM and the IC50 was greater than 20 µM.

`O=C1NC(=S)N/C1=C\c1ccco1`: the EC50 is greater than 200 µM and the IC50 was 105 µM.

In the case of `O=C1CCCCC1CN(Cc1ccccc1)Cc1ccccc1` (stereo unspecified), the result was inactive.

Regarding `O=c1[nH]n(CCc2ccccc2CCl)c2ccc([N+](=O)[O-])cc12`, the EC50 is greater than 200 µM and the IC50 came out at 50.1 µM.

As for `Oc1[nH]c2ccccc2c1N=Nc1nc(-c2ccc(Cl)c(Cl)c2)cs1`, the EC50 is greater than 200 µM and the IC50 stood at 40.7 µM.

Consider `CCC(/C=C/C1OC(=O)C=CC1C)=C\C(C)C/C=C/C(C)=C/C(C)C(=O)C(C)C(O)C(C)C/C(C)=C/C(=O)O` (stereo unspecified), for which the outcome was inactive.

With `O=c1[nH]c(=O)n(C2OC(CO)C(O)C2O)c2ncncc12` (stereo unspecified), the EC50 is greater than 200 µM and the half-maximal inhibitory concentration (IC50) was greater than 200 µM.

Regarding `Nc1nc(Cl)cc(Nc2ccc3c(c2)CCC3)n1`, the EC50 was greater than 200 µM and the half-inhibitory concentration (IC50) is 22.4 µM.

As to `CCCCCCCCCO/N=C\c1c2c(O)c3c(O)c(C)c4c(c3c1O)C(=O)C(C)(O/C=C\C(OC)C(C)C(OC(C)=O)C(C)C(O)C(C)C(O)C(C)/C=C\C=C(\C)C(=O)N2)O4` (stereo unspecified), the EC50 is greater than 200 µM and the concentration for half-maximal inhibition (IC50) stood at 3.16 µM.

In the case of `CCOP(=O)(Cc1cc(C(C)(C)C)c(O)c(C(C)(C)C)c1)OCC`, the EC50 was greater than 100 µM and the IC50 was greater than 100 µM.

For `O=S(=O)(O)c1cc(Cl)c(O)c2ncc(Cl)cc12`, the EC50 is greater than 200 µM and the IC50 was found to be 42.7 µM.

`CC(=O)OCC1OC(Nc2cc(=O)[nH]c(=O)[nH]2)C(OC(C)=O)C(OC(C)=O)C1OC(C)=O` (stereo unspecified): the result was inactive.

For `O=C(O)c1cc(CCc2cc(O)ccc2O)ccc1O`, the EC50 was greater than 182 µM and the IC50 was determined as 28.8 µM.

Consider `O=c1oc2ccccc2cc1/C=N/N1C(=S)N(c2ccccc2)C(=Nc2ccccc2)C1=Nc1ccccc1`, for which the EC50 was greater than 200 µM and the 50% inhibitory concentration (IC50) is greater than 200 µM.

For the compound `CCOP(=S)(N/N=C\C(C)(C)C1CCCCC1)OCC`, the EC50 was greater than 200 µM and the IC50 was 30.9 µM.

For the compound `CCOC(=O)/C(=C/c1ccncc1)C(=O)c1ccccc1`, the EC50 is greater than 129 µM and the half-inhibitory concentration (IC50) is greater than 129 µM.

For `NS(=O)(=O)c1nnc(NS(=O)(=O)c2cccc3cccnc23)s1`, the EC50 is greater than 200 µM and the half-maximal inhibitory concentration (IC50) was greater than 200 µM.

For the compound `Clc1c(Cl)c(Cl)c2c(nnn2C2CCCO2)c1Cl` (stereo unspecified), the EC50 is greater than 200 µM and the concentration for half-maximal inhibition (IC50) stood at 33.1 µM.

Turning to `O=c1cc(/C=C/c2ccccc2)c2ccc(O/C(=C\c3ccccc3)c3nc4ccccc4c(=O)o3)cc2o1`, the result was inactive.

As to `CC(C)(C)NC(NC(C)(C)C)=C(C(Cl)=C(Cl)Cl)[N+](=O)[O-]`, the EC50 was greater than 200 µM and the IC50 is greater than 200 µM.

Consider `ClC1=C(Cl)C(Cl)(Cl)c2c3c(c4c(c21)C(Cl)(Cl)C(Cl)=C4Cl)C(Cl)(Cl)C(Cl)=C3Cl`, for which the EC50 was greater than 8.71 µM and the concentration for half-maximal inhibition (IC50) was greater than 8.71 µM.

For `Clc1ccc(C2=NCON=C2c2ccc(Cl)cc2)cc1`, the result was inactive.

As to `COC(=O)[n+]1cc2c3cccc[n+]3c(N(C)C)n2c2ccccc21`, the EC50 was greater than 200 µM and the IC50 is 16.6 µM.

As for `C[Si](C)(C)O/C=C1\CCCCC1=O`, the EC50 is greater than 200 µM and the IC50 was greater than 200 µM.

For the compound `CC(=O)c1c2c(cc3c1CCC3)CCC2`, the EC50 was greater than 200 µM and the half-inhibitory concentration (IC50) is greater than 200 µM.

As for `CCOC(=O)c1c(Sc2ccc([N+](=O)[O-])cc2[N+](=O)[O-])nc2c3ccccc3ccn12`, the EC50 was greater than 200 µM and the half-inhibitory concentration (IC50) was greater than 200 µM.

For `COC(=O)C(CSSCC(NC(=O)CNC(=O)c1ccccc1)C(=O)OC)NC(=O)CNC(=O)c1ccccc1` (stereo not drawn) (I: Bz-Gly-Cys-OMe / II: Bz-Gly-Cys-OMe; disulfide I:2-II:2; configuration not given here), the EC50 was greater than 117 µM and the concentration for half-maximal inhibition (IC50) turned out to be 38.9 µM.

For the compound `CON(C)c1nc(N)c(C#N)c(C#N)c1C#N`, the EC50 was greater than 200 µM and the IC50 was determined as 35.5 µM.

For the compound `CCc1c(Cc2ccccc2)n(COCCO)c(=O)[nH]c1=O`, the concentration for a half-maximal effect (EC50) was 9.55 µM and the concentration for half-maximal inhibition (IC50) was greater than 200 µM.

As to `CCOC(=O)/C=C/CCCC(N1CCCC1)n1nnc2ccccc21` (stereo unspecified), the EC50 is greater than 200 µM and the IC50 was 3.31 µM.

With `O=C(Nc1cc2c(oc1=O)CCCCCC2)c1cnccn1`, the EC50 is greater than 50.1 µM and the IC50 is greater than 50.1 µM.

With `CC1(C)Cc2cc(C(=O)O)c3c(c2C1=O)COCC3`, the outcome was inactive.

In the case of `Cc1c2oc3c(C)ccc(C(=O)N[C@@H]4C(=O)N[C@H](C(C)C)C(=O)N5CCC[C@H]5C(=O)N(C)CC(=O)N(C)[C@@H](C(C)C)C(=O)O[C@H]4C)c3nc-2c(C(=O)N[C@@H]2C(=O)N[C@H](C(C)C)C(=O)N3CCC[C@H]3C(=O)N(C)CC(=O)N(C)[C@@H](C(C)C)C(=O)O[C@H]2C)c(N)c1=O` (I: [aThr][dV]P[Sar][NMeV] / II: [aThr][dV]P[Sar][NMeV]; ester I:1-I:C, II:1-II:C; linker I:N-II:N via Actinocin(9to1)), the EC50 was greater than 0.302 µM and the IC50 stood at 9.55e-05 µM.
